According to patent publication US20250032651A1, “[177LU] LUTETIUM-PSMA I&T COMPOSITION AND DOSIMETRY, KIT, METHOD OF MAKING, AND METHOD OF USING THEREOF” (Curium US LLC, priority 2022, published 2025):

Experiment: Normal organ dosimetry Cycle 1: SPECT/CT, TIACs, OLINDA 2.2.3 absorbed radiation dose
Type: in vivo, human
Details: for Absorbed Dose, min / Absorbed Dose, Mean / Absorbed Dose, max / Absorbed Dose, median: Cycle 1
Protocol: This Example presents the biodistribution, dosimetry, and pharmacokinetics (PK) results of a PK/Dosimetry sub-study performed as part of a Phase III trial. Twenty-seven (27) patients were administered a target activity of 7.4±10% GBq of ^177Lu-PSMA-I&T and underwent single photon emission computed tomography (SPECT)/computed tomography (CT) imaging at four timepoints (4 h, 24 h, 48 h, and 168 h). Image data was analysed to compute time-activity curves (TACs) and subsequently time-integrated activity coefficients (TIACs) in each organ of interest and in organs showing appreciable and meaningful ^177Lu-PSMA-I&T activity. Organ Level Internal Dose Assessment (OLINDA 2.2.3) was used to compute organ and whole body absorbed radiation doses for each patient.
All participating sites underwent a rigorous site setup process during which all dose calibrators, scanners, and gamma counters used in the sub-study were calibrated. Sites were allowed to enroll patients in the sub-study only after the completion and approval of all site setup processes by Invicro. Patients underwent SPECT/CT imaging, with anatomical coverage typically extending from the salivary glands to the pelvis, following the administration of a targeted 7.4±10% GBq of ^177Lu-PSMA-I&T at cycle 1. SPECT/CT imaging was performed at four timepoints: 4 h, 24 h, 48 h, and 168 h post-injection. Additionally, a subset of patients imaged at Cycle 1 (16 out of 27), were also imaged at Cycle 3 (Table 2).
The imaging data was analyzed using Invicro's VivoQuant software, a validated software used in a 21 CFR § 11-compliant workflow. The general quantification approach was based on the principles detailed in the Medical Internal Radiation Dose (MIRD) Pamphlet No. 16, No 23, and No 26 as appropriate.
Volume of interest (VOI) (kidneys, bladder, liver, lumbar vertebrae L2-L4, lacrimal glands, salivary glands [parotid and submandibular glands], and whole body) were delineated on each dataset by a trained image analyst. […] Organs were segmented either by drawing the entire contour of the organ, or by placing a sphere in a representative region of the organ and then multiplying by the organ's effective mass (based on patient's height and weight). Segmentation methods for each organ are specified in Table 3 and were consistently applied to each patient.
Clearance of the radiopharmaceutical was derived from a data-appropriate fit of each organ's TAC. Depending on the TAC's shape, the data was fitted with the sum of one, two, or three exponentials, or using a rise and fall model. Fitting was performed with in-house Python software. TIACs were calculated through analytical integration of the curve fit extrapolated to infinity. […] A whole-body TAC was derived from delineating the imaged body. The remainder activity was determined by subtracting the cumulative organ TIACs from the whole body TIAC.
Organ TIACs were input into OLINDA 2.2.3 for the computation of organ and whole-body absorbed doses, using International Commission on Radiological Protection (ICRP)-103 weighing factors. The ICRP-89 derived male phantom was used for dose estimation. Organs and body mass as defined by ICRP-89 were scaled based on height and mass using patient effective mass.^4 The voiding bladder model as implemented in OLINDA was used to determine bladder TIAC, assuming a voiding interval of 4 hours. The human alimentary tract model (HAT model) described in ICRP 100 and implemented in OLINDA was used to compute doses to the small intestine, right colon, left colon and rectum for patients showing clearance through the GI tract. The fraction of injected activity (fIA) cleared via the GI tract was determined by taking the peak fIA in the GI tract over all the imaging timepoints. […] The Red Marrow mass in L2-L4 was assumed to be 6.7% of the total red marrow mass.

[1] = Prostate, 16 patients imaged at cycle 1 and 3
[2] = Rectum, 16 patients imaged at cycle 1 and 3
[3] = Red Marrow, 16 patients imaged at cycle 1 and 3
[4] = Right Colon, 16 patients imaged at cycle 1 and 3
[5] = Salivary Glands, 16 patients imaged at cycle 1 and 3
[6] = Salivary Glands, n = 26, patient 12-004 excluded
[7] = Small intestine, 16 patients imaged at cycle 1 and 3
[8] = Spleen, 16 patients imaged at cycle 1 and 3
[9] = Stomach Wall, 16 patients imaged at cycle 1 and 3
[10] = Testes, 16 patients imaged at cycle 1 and 3
[11] = Thymus, 16 patients imaged at cycle 1 and 3
[12] = Thyroid, 16 patients imaged at cycle 1 and 3
[13] = Total Body, 16 patients imaged at cycle 1 and 3
[14] = Urinary Bladder wall, 16 patients imaged at cycle 1 and 3

O=C([O-])CC[C@H](NC(=O)N[C@@H](CCCCNC(=O)CCCCCCC(=O)NCCCC[C@@H](NC(=O)[C@@H](Cc1ccccc1)NC(=O)[C@@H](Cc1ccc(O)c(I)c1)NC(=O)CC[C@H](C(=O)[O-])N1CCN(CC(=O)[O-])CCN(CC(=O)[O-])CCN(CC(=O)[O-])CC1)C(=O)[O-])C(=O)[O-])C(=O)[O-].[177Lu+3].[H+].[H+].[H+].[H+].[H+] [^177Lu-PSMA I&T, (3S,7S,26R,29R,32R,37R)-29-benzyl-32-(4-hydroxy-3-iodobenzyl)-5,13,20,28,31,34-hexaoxo-37-(4,7,10-tris(carboxymethyl)-1,4,7,10-tetraazacyclododecan-1-yl)-4,6,12,21,27,30,33-heptaazaheptatriacontane-1,3,7,26,37-pentacarboxylic acid; lutetium-177 (III)]
0.07 Gy/GBq: Absorbed Dose in Cycle 1, max (Pancreas, N = 16) | Absorbed Dose in Cycle 1, max [1] | Absorbed Dose, max (Prostate, n = 26) | Absorbed Dose in Cycle 1, max (Prostate, N = 16) | Absorbed Dose in Cycle 1, max [9] | Absorbed Dose, max (Stomach Wall, n = 26) | Absorbed Dose in Cycle 1, max (Stomach Wall, N = 16) | Absorbed Dose in Cycle 1, max [10] | Absorbed Dose, max (Testes, n = 26) | Absorbed Dose in Cycle 1, max (Testes, N = 16) | Absorbed Dose in Cycle 1, max [11] | Absorbed Dose, max (Thymus, n = 26) | Absorbed Dose in Cycle 1, max (Thymus, N = 16) | Absorbed Dose in Cycle 1, max [12] | Absorbed Dose, max (Thyroid, n = 26) | Absorbed Dose in Cycle 1, max (Thyroid, N = 16)
0.05 Gy/GBq: Absorbed Dose in Cycle 1, Mean [3] | Absorbed Dose in Cycle 1, Mean (Red Marrow, N = 16) | Absorbed Dose, Mean (Small intestine, n = 26)
0.25 Gy/GBq: Absorbed Dose, Mean (Right Colon, n = 26)
0.17 Gy/GBq: Absorbed Dose in Cycle 1, Mean [5] | Absorbed Dose in Cycle 1, Mean (Salivary Glands, N = 16)
0.00 Gy/GBq: Absorbed Dose, min (Pancreas, n = 26) | Absorbed Dose in Cycle 1, min (Pancreas, N = 16) | Absorbed Dose in Cycle 1, min [3] | Absorbed Dose, min (Red Marrow, n = 26) | Absorbed Dose in Cycle 1, min (Red Marrow, N = 16) | Absorbed Dose in Cycle 1, min [9] | Absorbed Dose, min (Stomach Wall, n = 26) | Absorbed Dose in Cycle 1, min (Stomach Wall, N = 16) | Absorbed Dose in Cycle 1, min [10] | Absorbed Dose, min (Testes, n = 26) | Absorbed Dose in Cycle 1, min (Testes, N = 16) | Absorbed Dose in Cycle 1, min [11] | Absorbed Dose, min (Thymus, n = 26) | Absorbed Dose in Cycle 1, min (Thymus, N = 16) | Absorbed Dose in Cycle 1, min [12] | Absorbed Dose, min (Thyroid, n = 26) | Absorbed Dose in Cycle 1, min (Thyroid, N = 16)
0.19 Gy/GBq: Absorbed Dose, Mean [6]
0.33 Gy/GBq: Absorbed Dose in Cycle 1, min [14] | Absorbed Dose, min (Urinary Bladder wall, n = 26) | Absorbed Dose in Cycle 1, min (Urinary Bladder wall, N = 16)
0.06 Gy/GBq: Absorbed Dose in Cycle 1, Mean [7] | Absorbed Dose in Cycle 1, Mean (Small intestine, N = 16)
0.39 Gy/GBq: Absorbed Dose, median (Rectum, n = 26)
0.03 Gy/GBq: Absorbed Dose, median (Red Marrow, n = 26) | Absorbed Dose in Cycle 1, min [5] | Absorbed Dose, min [6] | Absorbed Dose in Cycle 1, min (Salivary Glands, N = 16) | Absorbed Dose in Cycle 1, Mean [8] | Absorbed Dose, Mean (Spleen, n = 26) | Absorbed Dose in Cycle 1, Mean (Spleen, N = 16)
0.44 Gy/GBq: Absorbed Dose, Mean (Rectum, n = 26)
0.80 Gy/GBq: Absorbed Dose in Cycle 1, max [5] | Absorbed Dose, max [6] | Absorbed Dose in Cycle 1, max (Salivary Glands, N = 16)
0.47 Gy/GBq: Absorbed Dose in Cycle 1, max [14] | Absorbed Dose in Cycle 1, max (Urinary Bladder wall, N = 16)
0.41 Gy/GBq: Absorbed Dose, Mean (Urinary Bladder wall, n = 26) | Absorbed Dose, median (Urinary Bladder wall, n = 26)
0.08 Gy/GBq: Absorbed Dose, Mean (Red Marrow, n = 26)
0.50 Gy/GBq: Absorbed Dose in Cycle 1, Mean [2] | Absorbed Dose in Cycle 1, Mean (Rectum, N = 16) | Absorbed Dose, max (Urinary Bladder wall, n = 26)
0.40 Gy/GBq: Absorbed Dose in Cycle 1, Mean [14]
10.40 Gy/GBq: Absorbed Dose in Cycle 1, Mean (Urinary Bladder wall, N = 16)
0.11 Gy/GBq: Absorbed Dose in Cycle 1, max [8] | Absorbed Dose, max (Spleen, n = 26) | Absorbed Dose in Cycle 1, max (Spleen, N = 16)
0.28 Gy/GBq: Absorbed Dose in Cycle 1, max [3] | Absorbed Dose in Cycle 1, max (Red Marrow, N = 16) | Absorbed Dose in Cycle 1, Mean [4] | Absorbed Dose in Cycle 1, Mean (Right Colon, N = 16)
0.15 Gy/GBq: Absorbed Dose, median [6] | Absorbed Dose in Cycle 1, max [7] | Absorbed Dose, max (Small intestine, n = 26) | Absorbed Dose in Cycle 1, max (Small intestine, N = 16)
0.82 Gy/GBq: Absorbed Dose in Cycle 1, max [4] | Absorbed Dose, max (Right Colon, n = 26) | Absorbed Dose in Cycle 1, max (Right Colon, N = 16)
0.09 Gy/GBq: Absorbed Dose in Cycle 1, max [13] | Absorbed Dose, max (Total Body, n = 26) | Absorbed Dose in Cycle 1, max (Total Body, N = 16)
1.46 Gy/GBq: Absorbed Dose in Cycle 1, max [2] | Absorbed Dose, max (Rectum, n = 26) | Absorbed Dose in Cycle 1, max (Rectum, N = 16)
0.02 Gy/GBq: Absorbed Dose in Cycle 1, Mean (Pancreas, N = 16) | Absorbed Dose in Cycle 1, Mean [1] | Absorbed Dose, Mean (Prostate, n = 26) | Absorbed Dose in Cycle 1, Mean (Prostate, N = 16) | Absorbed Dose, median (Spleen, n = 26) | Absorbed Dose in Cycle 1, Mean [9] | Absorbed Dose, Mean (Stomach Wall, n = 26) | Absorbed Dose in Cycle 1, Mean (Stomach Wall, N = 16) | Absorbed Dose in Cycle 1, Mean [13] | Absorbed Dose, Mean (Total Body, n = 26) | Absorbed Dose, median (Total Body, n = 26) | Absorbed Dose in Cycle 1, Mean (Total Body, N = 16)
0.22 Gy/GBq: Absorbed Dose, median (Right Colon, n = 26)
0.01 Gy/GBq: Absorbed Dose in Cycle 1, min [1] | Absorbed Dose, median (Prostate, n = 26) | Absorbed Dose, min (Prostate, n = 26) | Absorbed Dose in Cycle 1, min (Prostate, N = 16) | Absorbed Dose in Cycle 1, min [2] | Absorbed Dose, min (Rectum, n = 26) | Absorbed Dose in Cycle 1, min (Rectum, N = 16) | Absorbed Dose in Cycle 1, min [4] | Absorbed Dose, min (Right Colon, n = 26) | Absorbed Dose in Cycle 1, min (Right Colon, N = 16) | Absorbed Dose in Cycle 1, min [7] | Absorbed Dose, min (Small intestine, n = 26) | Absorbed Dose in Cycle 1, min (Small intestine, N = 16) | Absorbed Dose in Cycle 1, min [8] | Absorbed Dose, min (Spleen, n = 26) | Absorbed Dose in Cycle 1, min (Spleen, N = 16) | Absorbed Dose, median (Stomach Wall, n = 26) | Absorbed Dose in Cycle 1, Mean [10] | Absorbed Dose, Mean (Testes, n = 26) | Absorbed Dose, median (Testes, n = 26) | Absorbed Dose in Cycle 1, Mean (Testes, N = 16) | Absorbed Dose in Cycle 1, Mean [11] | Absorbed Dose, Mean (Thymus, n = 26) | Absorbed Dose, median (Thymus, n = 26) | Absorbed Dose in Cycle 1, Mean (Thymus, N = 16) | Absorbed Dose in Cycle 1, Mean [12] | Absorbed Dose, Mean (Thyroid, n = 26) | Absorbed Dose, median (Thyroid, n = 26) | Absorbed Dose in Cycle 1, Mean (Thyroid, N = 16) | Absorbed Dose in Cycle 1, min [13] | Absorbed Dose, min (Total Body, n = 26) | Absorbed Dose in Cycle 1, min (Total Body, N = 16)
0.04 Gy/GBq: Absorbed Dose, median (Small intestine, n = 26)
0.49 Gy/GBq: Absorbed Dose, max (Red Marrow, n = 26)
